Assay results as given in patent publication US8828928B2, “Amphiphilic peptides and peptide particles” (President and Fellows of Harvard College, priority 2011, dated 2014).
Values belong to the compound of their own block, whether it stands above or below them.

What was measured:
[1] = Solubility of the peptides in water and organic solvents; assay type: physicochemical
CHO cells = test: Release of encapsulated Flutax-2 into the cytosol of CHO cells; assay type: cell-based, Chinese hamster; conditions: 24 hours, 0.67 μM Flutax-2
Procedure: To assess whether binding and internalization of PNPs can result in the selective import of small molecule cargo, the release of encapsulated Flutax-2 into cells was analyzed 24 hours post addition of PNPFlutax-2^Tfn-AF568 into the cells (FIGS. 13A-13I). Flutax-2 is an Oregon Green (OG) modified derivative of paclitaxel(19), a mitotic inhibitor applied in cancer therapy (20). Unlike its unlabeled form, Flutax-2 is charged and water-soluble at the applied concentration and does consequently not permeate cell membranes. Thus, it was used a model compound to investigate efficiency and specificity of small molecule delivery by PNPs to the cytosol. […] Flutax-2 emission in the cytosol was averaged to quantify the amount of delivered compound into the cells.
CHO cell lines were grown in F12:DMEM 1:1 (Cellgro, 10-090) plus 10% fetal bovine serum (Gibco). […] Samples were fixed with 3% paraformaldehyde (Sigma, P6148) in PBS, mounted on glass slides using fluorescent mounting medium (Dako, 53023) and analyzed within 24 hours.
Fixed cells were analyzed on a Nikon Ti inverted microscope equipped with 60× Plan Apo NA 1.4 objective lens. DAPI fluorescence was excited with a 360/40 filter and collected with a 460/50 emission filter. Oregon Green fluorescence was excited with a 360/40 and collected with a 480/40 emission filter. […]

[2] = Stability of nucleic acid-containing peptide particles in water and at physiological salt strength; assay type: physicochemical
Source text: It should be noted that a mixture of CD3 peptides and nucleic acid molecules can self-assemble to form stable particles in pure water; however, they are generally not stable and dissolve, responding to increasing salt strengths and higher temperatures.
Accordingly, in some embodiments, a mixture of fully-acetylated amphiphilic peptides (e.g., CD3ac peptides), partially-acetylated or non-acetylated amphiphilic peptides (e.g., CD3 peptides) and nucleic acid molecules can be prepared to form stable peptide particles containing nucleic acid molecules (e.g., DNA or RNA including siRNA). […] It was determined that the presence of CD3ac peptides stabilizes ssDNA-containing peptide particles at physiological conditions. All the three components co-precipitated to form ssDNA-containing peptide particles that were stable at the corresponding salt strength.

[3] = Size of CD3ac beads by SEM and dynamic light scattering; assay type: physicochemical; conditions: SEM and DLS; initially dissolved CD3ac 123×10^−6 M
Procedure: Scanning electron microscopy (SEM) was carried out on a Hitachi S-4800. SEM sample holders were cooled to −196° C. before a drop of the bead suspension was directly applied to the cold metal surface. The frozen sample on the plate was subsequently lyophilized, sputtered with platinum and analyzed.
Dynamic light scattering was measured on an ALV/CGS-8F platform based goniometer system equipped with an ALV/-5000/E correlator and an Argon-Ion laser with a wavelength of […] (35 mW) at scattering angles between 30° and 150°. An ALV-5000/E correlator calculates the photon intensity autocorrelation function g2(t). All experiments were performed at T=293 K and evaluated by second order cumulant fit (considering previously determined spherical particle shape by SEM). Polydispersities were determined by the contin-algorithm at all angles and never exceeded 0.11. […] For both angular and concentration dependence, a hydrodynamic radius was calculated from the Stokes-formula
[formula] where rh is the hydrodynamic radius of spherical particles, D is the diffusion constant, kB is the Boltzmann constant, T is the absolute temperature and is the viscosity of water. A graph of 1/rh versus angle (concentration) was plotted and the hydrodynamic radius (rh0) was calculated by extrapolating both concentration and angle measurements to zero. […]

[4] = Estimating bead volume and density of CD3ac precipitates; assay type: physicochemical
Procedure: In order to estimate the density of CD3ac precipitates, beads (307.5×10^−6 M CD3ac starting concentration) were prepared large enough to exceed the diffraction limit of visible light. A low concentration of RB (10×10^−6 M) was co-precipitated to allow an estimate of the bead diameter by confocal fluorescence microscopy (1.35 μm) and facilitate counting on a hemacytometer (Hausser Scientific). An average of 72 beads were counted in an observed cell volume of 250,000 μm^3 that equals a bead volume fraction of 3.71×10^−4. A solution of 50 μL 307.5×10^−6M CD3ac thus contains a total bead volume of […] and the density of CD3ac can be determined (ρCD3ac≈1.35 g/cm^3). The logarithmic partition coefficient of RB in an aqueous solution of CD3ac beads was calculated according to […]

[5] = Particle diameter and corona thickness by negative staining TEM; assay type: physicochemical
Procedure: PNPs were assembled by mixing stock solutions of CD3ac, Tfn-AF568 and Flutax-2 to yield final concentrations of 123 μM CD3ac, 6 μM Flutax-2 and 10 μg/mL Tfn-AF568 in H2O:EtOH (1:1, v/v). Emulsification was induced by a first dilution step (1:1, H2O) followed by an equilibration period of 15 minutes before the ethanol content was further reduced to […] by the second dilution step (1:1, H2O). 50 μL aliquots of the resulting suspension were applied to 24-well sitting drop crystallization plates (Hampton Research, Cryschem) and counter-evaporated 3 times against 1 mL H2O during six hours.
PNP samples were prepared as described above. 5 μL of PNPs suspended in H2O were applied to a carbon film coated copper grid (400 square mesh, Electron Microscopy Sciences) and dried. The sample was stained with 10 μL 1% uranyl acetate during one minute. Excess stain was removed with a filter paper and subsequently applied to a Tecnai G^2 Spirit BioTWIN.

Compound: Flutax-2
Flutax-2 emission in the cytosol (CHO cells): could not be detected

Compound: CC(=O)NCCCC[C@H](NC(C)=O)C(=O)N[C@@H](CCCCNC(C)=O)C(=O)N[C@@H](CCCCNC(C)=O)C(=O)N[C@@H](Cc1c[nH]c2ccccc12)C(=O)N[C@H](CC(C)C)C(=O)N[C@@H](Cc1c[nH]c2ccccc12)C(=O)N[C@H](CC(C)C)C(=O)N[C@@H](Cc1c[nH]c2ccccc12)C(=O)N[C@H](CC(C)C)C(=O)N[C@@H](Cc1c[nH]c2ccccc12)C(N)=O (racemic) [CD3ac, Ac-LK(Ac)-LK(Ac)-LK(Ac)-LW-DL-LW-DL-LW-DL-LW-NH2]
solubility in water [1]: insoluble
solubility in organic solvents ([1]; EtOH, iPrOH, DMSO, DMF, MeCN): readily dissolves
particle radius [3]: about 260 nm
bead diameter ([4]; 307.5×10^−6 M CD3ac starting concentration, 10×10^−6 M RB, confocal fluorescence microscopy): 1.35 μm
density of CD3ac precipitates (ρCD3ac) ([4]; from bead count and bead volume fraction): ≈ 1.35 g/cm^3
thickness of the protein corona [5]: 9.0+/−2.1 nm
average particle diameter ([5]; assembled in the absence of Tfn-AF568): 100 nm
average particle diameter ([5]; assembled in the presence of Tfn-AF568, excluding corona): 51 nm

Continued, values first:

solubility in water [1]: water soluble
Compound: CC(C)C[C@@H](NC(=O)[C@H](Cc1c[nH]c2ccccc12)NC(=O)[C@@H](CC(C)C)NC(=O)[C@H](Cc1c[nH]c2ccccc12)NC(=O)[C@@H](CC(C)C)NC(=O)[C@H](Cc1c[nH]c2ccccc12)NC(=O)[C@@H](N)CCCCN)C(=O)N[C@@H](Cc1c[nH]c2ccccc12)C(N)=O (racemic) [CD1, H-LK-LW-DL-LW-DL-LW-DL-LW-NH2]

solubility in water [1]: water soluble
Compound: CC(C)C[C@@H](NC(=O)[C@H](Cc1c[nH]c2ccccc12)NC(=O)[C@@H](CC(C)C)NC(=O)[C@H](Cc1c[nH]c2ccccc12)NC(=O)[C@@H](CC(C)C)NC(=O)[C@H](Cc1c[nH]c2ccccc12)NC(=O)[C@H](CCCCN)NC(=O)[C@H](CCCCN)NC(=O)[C@H](CCCCN)NC(=O)[C@@H](N)CCCCN)C(=O)N[C@@H](Cc1c[nH]c2ccccc12)C(N)=O (racemic) [CD4, H-LK-LK-LK-LK-LW-DL-LW-DL-LW-DL-LW-NH2]

solubility in water [1]: water soluble
particle stability at increasing / physiological salt strength [2]: not stable
particle stability in pure water [2]: stable
Compound: CC(C)C[C@@H](NC(=O)[C@H](Cc1c[nH]c2ccccc12)NC(=O)[C@@H](CC(C)C)NC(=O)[C@H](Cc1c[nH]c2ccccc12)NC(=O)[C@@H](CC(C)C)NC(=O)[C@H](Cc1c[nH]c2ccccc12)NC(=O)[C@H](CCCCN)NC(=O)[C@H](CCCCN)NC(=O)[C@@H](N)CCCCN)C(=O)N[C@@H](Cc1c[nH]c2ccccc12)C(N)=O (racemic) [CD3, H-LK-LK-LK-LW-DL-LW-DL-LW-DL-LW-NH2]

solubility in water [1]: water soluble
Compound: CC(C)C[C@@H](NC(=O)[C@H](Cc1c[nH]c2ccccc12)NC(=O)[C@@H](CC(C)C)NC(=O)[C@H](Cc1c[nH]c2ccccc12)NC(=O)[C@@H](CC(C)C)NC(=O)[C@H](Cc1c[nH]c2ccccc12)NC(=O)[C@H](CCCCN)NC(=O)[C@@H](N)CCCCN)C(=O)N[C@@H](Cc1c[nH]c2ccccc12)C(N)=O (racemic) [CD2, H-LK-LK-LW-DL-LW-DL-LW-DL-LW-NH2]
